The assay addresses Recombinant human factor D (Homo sapiens, UniProt P00746). The experiment in a line: Human Complement Factor D Assay: Method 1. As to conditions: Factor D inhibition, 10 nM factor D, Z-Lys-thiobenzyl substrate, fluorescence readout. It counts as biochemical. How it is done: Human Complement Factor D Assay: Method 1 Recombinant human factor D (expressed in E. coli and purified using standard methods) at 10 nM concentration is incubated with test compound at various concentrations for 1 hour at room temperature in 0.1 M Hepes buffer, pH 7.5, containing 1 mM MgCl2, 1 M NaCl and 0.05% CHAPS. […] The increase in fluorescence is recorded at excitation of 485 nm and emission at 535 nm in a microplate spectrofluorimeter. IC50 values are calculated from percentage of inhibition of complement factor D-activity as a function of test compound concentration.

SMILES strings stand for the structures.

Chain of Recombinant human factor D (P00746 26-253): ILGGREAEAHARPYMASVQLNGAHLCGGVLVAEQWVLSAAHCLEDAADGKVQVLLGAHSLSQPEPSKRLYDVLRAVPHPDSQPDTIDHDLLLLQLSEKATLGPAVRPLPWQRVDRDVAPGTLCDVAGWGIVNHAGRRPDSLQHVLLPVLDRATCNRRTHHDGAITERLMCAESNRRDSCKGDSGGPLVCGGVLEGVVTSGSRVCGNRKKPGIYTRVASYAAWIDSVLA

In the case of `C[C@@]1(F)C[C@@H](C(=O)Nc2cccc(Br)n2)N(C(=O)Nc2cn(C(N)=O)c3ccccc23)C1` [Example 34, (2S,4R)-4-Fluoro-4-methyl-pyrrolidine-1,2-dicarboxylic acid 2-[(6-bromo-pyridin-2-yl)-amide] 1-[(1-carbamoyl-1H-indol-3-yl)-amide]], the IC50 amounted to 14 nM.

As to `NC(=O)c1nn(CC(=O)N2C[C@H](F)C[C@H]2C(=O)Nc2cccc(Br)n2)c2cnc(CF)cc12` [Example 24, 1-(2-((2S,4R)-2-(6-bromopyridin-2-ylcarbamoyl)-4-fluoropyrrolidin-1-yl)-2-oxoethyl)-5-(fluoromethyl)-1H-pyrazolo[3,4-c]pyridine-3-carboxamide], the IC50 was determined as 7 nM.

Consider `Cc1ncc(NC(=O)[C@@H]2C[C@H]3C[C@H]3N2C(=O)Cn2nc(C(N)=O)c3ccccc32)nc1Br` [Example 7, 1-{2-[(1R,3S,5R)-3-(6-Bromo-5-methyl-pyrazin-2-ylcarbamoyl)-2-aza-bicyclo[3.1.0]hex-2-yl]-2-oxo-ethyl}-1H-indazole-3-carboxylic acid amide], for which the IC50 was 6 nM.

Turning to `NC(=O)c1nn(CC(=O)N2[C@@H]3C[C@@H]3C[C@H]2C(=O)Nc2cccc(Br)n2)c2cc(F)ccc12` [Example 11, 1-{2-[(1R,3S,5R)-3-(6-Bromo-pyridin-2-ylcarbamoyl)-2-aza-bicyclo[3.1.0]hex-2-yl]-2-oxo-ethyl}-6-fluoro-1H-indazole-3-carboxylic acid amide], the IC50 worked out at 5 nM.

As for `CCc1cc2c(C(N)=O)nn(CC(=O)N3[C@@H]4C[C@@H]4C[C@H]3C(=O)Nc3cccc(C(F)(F)F)n3)c2cn1` [Example 2, 5-Ethyl-1-{2-oxo-2-[(1R,3S,5R)-3-(6-trifluoromethyl-pyridin-2-ylcarbamoyl)-2-aza-bicyclo[3.1.0]hex-2-yl]-ethyl}-1H-pyrazolo[3,4-c]pyridine-3-carboxylic acid amide], the IC50 came out at 18 nM.

On to `CC(=O)c1nn(CC(=O)N2[C@@H]3C[C@@H]3C[C@H]2C(=O)Nc2cncc(Br)n2)c2cnccc12` [Example 14, (1R,3S,5R)-2-[2-(3-Acetyl-pyrazolo[3,4-c]pyridin-1-yl)-acetyl]-2-aza-bicyclo[3.1.0]hexane-3-carboxylic acid (6-bromo-pyrazin-2-yl)-amide], for which the IC50 came to 11 nM.

For the compound `CC(=O)c1nn(CC(=O)N2[C@@H]3C[C@@H]3C[C@H]2C(=O)Nc2cnc(C)c(Br)n2)c2cnccc12` [Example 12, (1R,3S,5R)-2-[2-(3-Acetyl-pyrazolo[3,4-c]pyridin-1-yl)-acetyl]-2-aza-bicyclo[3.1.0]hexane-3-carboxylic acid (6-bromo-5-methyl-pyrazin-2-yl)-amide], the IC50 was 16 nM.

As for `Cc1ccc2c(C(N)=O)nn(CC(=O)N3[C@@H]4C[C@@H]4C[C@H]3C(=O)Nc3cccc(Br)n3)c2c1` [Example 8, 1-{2-[(1R,3S,5R)-3-(6-Bromo-pyridin-2-ylcarbamoyl)-2-aza-bicyclo[3.1.0]hex-2-yl]-2-oxo-ethyl}-6-methyl-1H-indazole-3-carboxylic acid amide], the IC50 came to 5 nM.

Consider `Cc1ncc(NC(=O)[C@@H]2C[C@H]3C[C@H]3N2C(=O)Nc2cn(C(N)=O)c3ccccc23)nc1Br` [Example 32, (1R,3S,5R)-2-Aza-bicyclo[3.1.0]hexane-2,3-dicarboxylic acid 3-[(6-bromo-5-methyl-pyrazin-2-yl)-amide] 2-[(1-carbamoyl-1H-indol-3-yl)-amide]], for which the IC50 was determined as 5 nM.

As to `NC(=O)c1nn(CC(=O)N2[C@@H]3C[C@@H]3C[C@H]2C(=O)Nc2cccc(Br)n2)c2ccncc12` [Example 10, 1-{2-[(1R,3S,5R)-3-(6-Bromo-pyridin-2-ylcarbamoyl)-2-aza-bicyclo[3.1.0]hex-2-yl]-2-oxo-ethyl}-1H-pyrazolo[4,3-c]pyridine-3-carboxylic acid amide], the IC50 worked out at 9 nM.

Turning to `CC(=O)c1nn(CC(=O)N2C[C@H]3C[C@H]3[C@H]2C(=O)Nc2cccc(Br)n2)c2cnccc12` [Example 15, (1R,2S,5S)-3-[2-(3-Acetyl-pyrazolo[3,4-c]pyridin-1-yl)-acetyl]-3-aza-bicyclo[3.1.0]hexane-2-carboxylic acid (6-bromo-pyridin-2-yl)-amide], the IC50 was determined as 14 nM.

On to `NC(=O)c1nn(CC(=O)N2C[C@H](F)[C@H](F)[C@H]2C(=O)Nc2cccc(Br)n2)c2ccccc12` [Example 23, 1-{2-[(2R,3R,4S)-2-(6-Bromo-pyridin-2-ylcarbamoyl)-3,4-difluoro-pyrrolidin-1-yl]-2-oxo-ethyl}-1H-indazole-3-carboxylic acid amide], for which the IC50 was determined as 8 nM.

In the case of `NC(=O)c1nn(CC(=O)N2C3CC(C3)C2C(=O)Nc2cccc(Br)n2)c2ccccc12` (centres unmarked) [Example 28, N-(6-bromopyridin-2-yl)-2-(2-(3-carbamoyl-1H-indazol-1-yl)acetyl)-2-azabicyclo[2.1.1]hexane-3-carboxamide], the IC50 is 120 nM.

On to `NC(=O)c1nn(CC(=O)N2CC[C@H](F)[C@H]2C(=O)Nc2cccc(Br)n2)c2ccccc12` [Example 27, 1-(2-((2R,3S)-2-((6-bromopyridin-2-yl)carbamoyl)-3-fluoropyrrolidin-1-yl)-2-oxoethyl)-1H-indazole-3-carboxamide], for which the IC50 is 80 nM.

As to `C[C@@]12C[C@@H](C(=O)Nc3cccc(Br)n3)N(C(=O)Nc3cn(C(N)=O)c4ccccc34)[C@@H]1C2` [Example 37, (1R,3S,5R)-5-Methyl-2-aza-bicyclo[3.1.0]hexane-2,3-dicarboxylic acid 3-[(6-bromo-pyridin-2-yl)-amide] 2-[(1-carbamoyl-1H-indol-3-yl)-amide]], the IC50 turned out to be 8 nM.

On to `CC(=O)c1nn(CC(=O)N2[C@@H]3C[C@@H]3C[C@H]2C(=O)Nc2cccc(OC(F)F)n2)c2ccc(OCc3ncccn3)cc12` [Example 6, (1R,3S,5R)-2-{2-[3-Acetyl-5-(pyrimidin-2-ylmethoxy)-indazol-1-yl]-acetyl}-2-aza-bicyclo[3.1.0]hexane-3-carboxylic acid (6-difluoromethoxy-pyridin-2-yl)-amide], for which the IC50 was determined as 38 nM.

As to `NC(=O)n1cc(NC(=O)N2[C@@H]3C[C@@H]3C[C@H]2C(=O)Nc2cncc(Br)n2)c2ccccc21` [Example 31, (1R,3S,5R)-2-Aza-bicyclo[3.1.0]hexane-2,3-dicarboxylic acid 3-[(6-bromo-pyrazin-2-yl)-amide]2-[(1-carbamoyl-1H-indol-3-yl)-amide]], the IC50 is 4 nM.

In the case of `CC(=O)c1nn(CC(=O)N2[C@@H]3C[C@@H]3C[C@H]2C(=O)Nc2cncc(C(F)(F)F)n2)c2ccccc12` [Example 16, (1R,3S,5R)-2-[2-(3-Acetyl-indazol-1-yl)-acetyl]-2-aza-bicyclo[3.1.0]hexane-3-carboxylic acid (6-trifluoromethyl-pyrazin-2-yl)-amide], the half-inhibitory concentration (IC50) amounted to 17 nM.

As to `NC(=O)c1nn(CC(=O)N2[C@@H]3C[C@@H]3C[C@H]2C(=O)Nc2cncc(Br)n2)c2ncccc12` [Example 1, 1-{2-[(1R,3S,5R)-3-(6-Bromo-pyrazin-2-ylcarbamoyl)-2-aza-bicyclo[3.1.0]hex-2-yl]-2-oxo-ethyl}-1H-pyrazolo[3,4-b]pyridine-3-carboxylic acid amide], the IC50 came to 19 nM.

With `NC(=O)c1nn(CC(=O)N2[C@@H]3C[C@@H]3C[C@H]2C(=O)Nc2cccc(Cl)n2)c2ccccc12` [Example 20, 1{2-[(1R,3S,5R)-3-(6-Chloro-pyridin-2-ylcarbamoyl)-2-aza-bicyclo[3.1.0]hex-2-yl]-2-oxo-ethyl}-1H-indazole-3-carboxylic acid amide], the 50% inhibitory concentration (IC50) amounted to 4 nM.

Turning to `NC(=O)c1nn(CC(=O)N2[C@@H]3C[C@@H]3C[C@H]2C(=O)Nc2cccc(I)n2)c2ccccc12` [Example 21, 1-{2-[(1R,3S,5R)-3-(6-Iodo-pyridin-2-ylcarbamoyl)-2-aza-bicyclo[3.1.0]hex-2-yl]-2-oxo-ethyl}-1H-indazole-3-carboxylic acid amide], the IC50 turned out to be 3 nM.

In the case of `NC(=O)c1nn(CC(=O)N2[C@@H]3C[C@@H]3C[C@H]2C(=O)Nc2cncc(C(F)(F)F)n2)c2ccccc12` [Example 9, 1-{2-Oxo-2-[(1R,3S,5R)-3-(6-trifluoromethyl-pyrazin-2-ylcarbamoyl)-2-aza-bicyclo[3.1.0]hex-2-yl]ethyl}-1H-indazole-3-carboxylic acid amide], the IC50 was 32 nM.

With `Cc1cc2c(C(N)=O)nn(CC(=O)N3[C@@H]4C[C@@H]4C[C@H]3C(=O)Nc3cccc(C(F)(F)F)n3)c2c(C)n1` [Example 29, 5,7-dimethyl-1-(2-oxo-2-((1R,3S,5R)-3-((6-(trifluoromethyl)pyridin-2-yl)carbamoyl)-2-azabicyclo[3.1.0]hexan-2-yl)ethyl)-1H-pyrazolo[3,4-c]pyridine-3-carboxamide], the IC50 was 6 nM.

For the compound `NC(=O)c1nn(CC(=O)N2[C@@H]3C[C@@H]3C[C@H]2C(=O)Nc2cccc(Br)n2)c2nnccc12` [Example 3, 1-{2-[(1R,3S,5R)-3-(6-Bromo-pyridin-2-ylcarbamoyl)-2-aza-bicyclo[3.1.0]hex-2-yl]-2-oxo-ethyl}-1H-pyrazolo[3,4-c]pyridazine-3-carboxylic acid amide], the IC50 was 24 nM.

For `COc1cc(Br)nc(NC(=O)[C@@H]2C[C@H]3C[C@H]3N2C(=O)Cn2nc(C(N)=O)c3ccccc32)c1` [Example 22, 1-{2-[(1R,3S,5R)-3-(6-Bromo-4-methoxy-pyridin-2-ylcarbamoyl)-2-aza-bicyclo[3.1.0]hex-2-yl]-2-oxo-ethyl}-1H-indazole-3-carboxylic acid amide], the IC50 was found to be 5 nM.

With `NC(=O)n1cc(NC(=O)N2CCC[C@H]2C(=O)Nc2cccc(Br)n2)c2ccccc21` [Example 35, (S)-Pyrrolidine-1,2-dicarboxylic acid 2-[(6-bromo-pyridin-2-yl)-amide]-1-[(1-carbamoyl-1H-indol-3-yl)-amide]], the IC50 amounted to 20 nM.

Values taken from patent US20150191462A1, “PYRROLIDINE DERIVATIVES AND THEIR USE AS COMPLEMENT PATHWAY MODULATORS” (priority 2012, published 2015).
